Results as given in ChEMBL document CHEMBL1817578, “2-({6-[(3R)-3-amino-3-methylpiperidine-1-yl]-1,3-dimethyl-2,4-dioxo-1,2,3,4-tetrahydro-5H-pyrrolo[3,2-d]pyrimidine-5-yl}methyl)-4-fluorobenzonitrile (DSR-12727): a potent, orally active dipeptidyl peptidase IV inhibitor without mechanism-based inactivation of CYP3A” (Bioorg Med Chem, 2011).

How the values were obtained:
[1] = Cmax in rat at 3 mg/kg, po; assay type: ADME, organism-based; design: dose 3 mg/kg, route oral; conditions: in vivo
[2] = Volume of distribution at steady state in dog at 1 mg/kg, iv; assay type: ADME, organism-based, Canis lupus familiaris; design: dose 1 mg/kg, route intravenous; conditions: in vivo, read-out: Vdss
Cytochrome P450 2A6 = molecular target: T1, Cytochrome P450 2A6 (Homo sapiens, UniProt P11509); assay: Inhibition of CYP2A6; assay type: ADME
T1 sequence (P11509 whole entry): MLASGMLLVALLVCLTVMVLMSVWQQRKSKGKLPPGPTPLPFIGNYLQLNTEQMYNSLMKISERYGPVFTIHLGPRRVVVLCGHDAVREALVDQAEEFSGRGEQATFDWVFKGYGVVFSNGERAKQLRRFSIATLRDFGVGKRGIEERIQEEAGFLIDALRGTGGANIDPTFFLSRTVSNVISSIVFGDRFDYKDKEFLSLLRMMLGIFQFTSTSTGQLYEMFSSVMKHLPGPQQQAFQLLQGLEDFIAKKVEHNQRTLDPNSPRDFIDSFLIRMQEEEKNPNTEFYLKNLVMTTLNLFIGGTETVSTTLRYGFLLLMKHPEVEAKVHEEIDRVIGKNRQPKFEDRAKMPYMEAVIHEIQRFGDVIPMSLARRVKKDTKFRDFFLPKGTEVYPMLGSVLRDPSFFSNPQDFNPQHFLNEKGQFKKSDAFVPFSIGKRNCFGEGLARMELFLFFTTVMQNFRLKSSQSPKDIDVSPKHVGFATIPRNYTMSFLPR

[3] = Plasma protein binding in rat; assay type: ADME, cell-free; conditions: read-out: PPB (converted)
Cytochrome P450 2D6 = Cytochrome P450 2D6 (Homo sapiens, UniProt P10635); assay: Inhibition of CYP2D6; assay type: ADME
[4] = Clearance in monkey at 1 mg/kg, iv; assay type: ADME, organism-based, Macaca mulatta; design: dose 1 mg/kg, route intravenous; conditions: rhesus monkey, in vivo
Dipeptidyl peptidase 4 = Dipeptidyl peptidase 4 (Homo sapiens, UniProt P27487); assay: Inhibition of DPP4 in human plasma assessed as formation of 7-amino-4-methylcoumarin from glycyl-L-proline 4-methylcoumaryl-7-amide by fluorescence assay
[5] = Oral bioavailability in monkey at 3 mg/kg, po; assay type: ADME, organism-based, Macaca mulatta; conditions: rhesus monkey, in vivo
[6] = Clearance in dog at 1 mg/kg, iv; assay type: ADME, organism-based, Canis lupus familiaris; design: dose 1 mg/kg, route intravenous; conditions: in vivo
[7] = Half life in rat at 3 mg/kg, po; assay type: ADME, organism-based; design: dose 3 mg/kg, route oral; conditions: in vivo

Chain of Cytochrome P450 2D6 (P10635 whole entry): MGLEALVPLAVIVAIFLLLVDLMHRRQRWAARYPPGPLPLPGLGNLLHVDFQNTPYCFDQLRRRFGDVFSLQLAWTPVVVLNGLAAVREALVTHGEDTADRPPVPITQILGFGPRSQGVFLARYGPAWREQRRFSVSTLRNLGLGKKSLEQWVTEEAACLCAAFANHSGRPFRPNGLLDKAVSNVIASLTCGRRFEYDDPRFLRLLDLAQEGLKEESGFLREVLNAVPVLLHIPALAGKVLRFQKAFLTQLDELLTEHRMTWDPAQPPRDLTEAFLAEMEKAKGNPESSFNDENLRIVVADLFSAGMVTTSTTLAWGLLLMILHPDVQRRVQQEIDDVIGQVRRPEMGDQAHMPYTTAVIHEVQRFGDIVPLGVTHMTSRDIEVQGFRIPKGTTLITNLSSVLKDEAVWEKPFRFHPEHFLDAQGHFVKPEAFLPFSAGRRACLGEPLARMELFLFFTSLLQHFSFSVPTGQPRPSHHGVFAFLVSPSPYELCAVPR
Chain of Dipeptidyl peptidase 4 (P27487 whole entry): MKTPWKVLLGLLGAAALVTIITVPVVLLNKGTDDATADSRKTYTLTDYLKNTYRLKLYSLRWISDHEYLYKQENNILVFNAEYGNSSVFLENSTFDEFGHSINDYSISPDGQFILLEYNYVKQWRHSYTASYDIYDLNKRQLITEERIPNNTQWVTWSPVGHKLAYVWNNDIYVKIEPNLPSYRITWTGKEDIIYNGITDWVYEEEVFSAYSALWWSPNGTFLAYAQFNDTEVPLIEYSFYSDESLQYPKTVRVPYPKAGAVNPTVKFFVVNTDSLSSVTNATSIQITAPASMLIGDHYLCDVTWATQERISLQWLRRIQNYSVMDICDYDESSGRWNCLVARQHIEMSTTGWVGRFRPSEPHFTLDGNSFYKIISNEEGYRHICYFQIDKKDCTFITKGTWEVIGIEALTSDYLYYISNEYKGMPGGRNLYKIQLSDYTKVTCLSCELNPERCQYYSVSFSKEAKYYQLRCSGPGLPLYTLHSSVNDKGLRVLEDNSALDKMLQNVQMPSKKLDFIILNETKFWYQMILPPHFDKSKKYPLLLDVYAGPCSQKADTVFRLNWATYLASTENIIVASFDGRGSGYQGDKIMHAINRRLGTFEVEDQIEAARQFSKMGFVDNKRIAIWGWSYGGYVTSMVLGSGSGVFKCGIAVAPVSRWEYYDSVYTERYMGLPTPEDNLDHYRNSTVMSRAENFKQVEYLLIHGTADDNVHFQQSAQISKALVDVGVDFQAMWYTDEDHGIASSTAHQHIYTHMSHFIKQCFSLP

Structure (SMILES): Cn1c(=O)c2c(cc(N3CCC[C@@](C)(N)C3)n2Cc2cc(F)ccc2C#N)n(C)c1=O
- Cmax [1]: 76 ng/mL
- Vd [2]: 5.8 L/kg
- IC50 (Cytochrome P450 2A6): > 50 µM
- fraction unbound [3]: 0.22
- IC50 (Cytochrome P450 2D6): 38 µM
- clearance [4]: 38 mL/min/kg
- IC50 (Dipeptidyl peptidase 4): 0.0011 µM
- bioavailability [5]: 38%
- clearance [6]: 29 mL/min/kg
- half-life [7]: 3.3 h
